Experimental data as given in patent US20230285570A1, “THERAPEUTICALLY USEFUL CURE-PRO MOLECULES FOR E3 LIGASE MEDIATED DEGRADATION OF PROTEINS, AND METHODS OF MAKING AND USING THEM” (CORNELL UNIVERSITY, priority 2020, published 2023).
“Also recorded” adds a separate entry of the source.

Key:
Assay type in all cases: cell-based
[1] = molecular target: T1, BRD4 (Homo sapiens, UniProt O60885); experiment: CURE-PRO-mediated BRD4 degradation in MCF7 cells, WES (ProteinSimple); design: endogenous in cells
Method: WES Simple analysis was performed on WES system (ProteinSimple-Biotechne) according to the manufacturer's instructions. Total protein concentrations of cell lysates were determined by the Pierce BCA kit (Thermo Fisher). 3 μL of 0.3 μg/μL of the protein lysate was loaded onto a 12- to 230-kDa WES assay plate (ProteinSimple) where 300 nL sample was withdrawn through a capillary, subjected to electrophoretic separation of proteins by size, and followed by the simultaneous, HRP-based detection of proteins using the Anti-Rabbit Detection Module (Proteinsimple: #DM-001). The electropherograms were checked then the automatic peak detection was manually corrected if it was required.
MCF7 cells (3×10^6) were treated for 4-24 hours continually (FIG. 72), or treated for 4 h, washed and incubated for a further 4-24 h with the compounds solubilized in DMSO. Compounds were added at 10 μM each. Cells were washed, lysed, and clarified by centrifugation. The total protein concentration was quantified by the BCA method (ThermoFisher Sciences). Standardized protein samples were electrophoresed and imaged as described in the WES Proteinsimple section above. FIG. 69 depicts the CURE-PRO-mediated BRD4 degradation for the BRD-E50 monomer, and VHL ligand, 8305.
MCF7 cells (3×10^6) were treated for 24 hours with the compounds solubilized in DMSO. CURE-PRO monomers were added at 10 μM each and the proteasomal inhibitors at 1 μM. Standardized protein samples were electrophoresed and imaged as described in the WES Proteinsimple section above. FIGS. 73 and 75 depicts the dependence of the proteasome for CURE-PRO-mediated BRD4 degradation.
MCF7 cells (3×10^6) were treated for 24 hours with the compounds solubilized in DMSO. CURE-PRO monomers were added at 10 μM. FIG. 74 depicts the CURE-PRO-mediated BRD4 degradation for the BRD-E50 monomer, and VHL ligand, 8305 combined in a 1:1 ratio after 24 h.

[2] = molecular target: T1, BRD4; experiment: Summary of BRD4 degradation by CURE-PRO pairs, estimated from Western Blot or WES; design: endogenous in cells; conditions: for Degradation of BRD4, combination with VHL ligand 8305: Table 3, aryl-boronic acid BRD4 ligand + 8305; for Degradation of BRD4, combination with CRBN ligand 8046: Table 1, aryl-boronic acid BRD4 ligand + 8046; for Degradation of BRD4, combination with CRBN ligand 8066: Table 1, aryl-boronic acid BRD4 ligand + 8066
Method in brief: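 Degradation read-out from immunoblot with ECL, or WES capillary electrophoresis with HRP detection, of RIPA lysates. Cells (Namalwa, Ramos, HeLa, MCF7, HT29 or HCT116) were exposed to DMSO-solubilized compounds for 24 h; a check mark marks 30% to 70% or higher degradation.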

[3] = system: MV-4-11 cells; experiment: CellTiter-Glo cell viability, MV-4-11 cells; conditions: for loss of cellular viability (toxicity) versus monomers alone: cotreated 1:1 with each of CRBN ligands 8046, 8047 and 8066, MV-4-11, 72 h, 10 nM-100 μM
Method: CellTiter-Glo® 2.0 Cell Viability Assay (Promega) was carried out following the manufacturer's recommendations. Cells were seeded at a density of 1000 cells/well in a white 96 well plates (Corning, #3917) in a total volume of 100 μl with respective monomers, combinations of BRD ligands together with E3 ligase ligands or vehicle control treatment. After a 72 h incubation, 100 ul of the CellTiter-Glo® substrate was added per well and luminescence was read on a Spectramax M5 (Molecular Devices). Dose-response curves were generated using Graphpad Prism software.
MV-4-11 cells (5×10^4) were treated for 24 hours with the sample compounds solubilized in DMSO. The compounds were added at 1 nM-100 μM each. Cellular viability was determined using the CellTiter-Glo® Luminescent Cell Viability Assay (Promega) described above. FIGS. 19-22 depict the CURE-PRO-mediated loss of cellular viability for BRD monomers (JQ1 derivatives comprising of catechol linkers), and CRBN ligand, 8049 (pomalidomide derivatives comprising boronic acid linkers) combined in a 1:1 ratio.
MV-4-11 cells (1×10^4) were treated for 72 hours with the compounds solubilized in DMSO. Compounds were added at 10 nM-100 μM each. Cellular viability was determined using the CellTiter-Glo® Luminescent Cell Viability Assay (Promega) described above. FIGS. 47-54 depict the CURE-PRO-mediated loss of cellular viability for BRD monomers (JQ1 derivatives comprising of boronic acid linkers), and CRBN ligands, 8046, 8047 and 8066 (pomalidomide derivatives comprising diol linkers) combined in a 1:1 ratio.

[4] = molecular target: T1, BRD4; experiment: CURE-PRO-mediated BRD4 degradation in HeLa cells, Western blot; design: endogenous in cells; host or cells: HeLa; conditions: 24 h
Method in brief: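 HeLa cells (2.5×10^6) treated 24 h with DMSO-solubilized compounds, degrader pairs combined 1:1, at 1 nM-1 μM, 1-10 μM, 10 μM or 10 and 100 μM each depending on series. RIPA lysates (10-20 μg protein) run on SDS-PAGE and immunoblotted for BRD4 with ECL detection.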

[5] = co-treated 1:1 with CRBN ligand 8046, HeLa, 10 μM each
[6] = co-treated 1:1 with CRBN ligand 8047, HeLa, 10 μM each
[7] = co-treated 1:1 with CRBN ligand 8066, HeLa, 10 μM each

## COc1ccc2c(c1)C(c1ccc(Cl)cc1)=N[C@@H](CC(=O)NCCNC(=O)c1cccc(B(O)O)c1)c1nnc(C)n1-2 [BRD-E2]
[1]; 1:1 with 8305 at 10 μM, pre-incubation with MG-132 and Carfilzomib 1 μM, MCF7
  BRD4 degradation with proteasome inhibitors: inhibited by the pre-incubation with MG-132 and Carfilzomib; also recorded: inhibited with the proteasome inhibitors, MG-132 and Carfilzomib
[1]; 1:1 with VHL ligand 8305, MCF7, 10 μM each, 4-24 h
  BRD4 degradation: caused BRD4 degradation; also recorded: marked BRD4 degradation
[2]
  Degradation of BRD4, combination with VHL ligand 8305: √ (A black check mark indicates efficacy of 30% to 70% or higher protein degradation)

## COc1ccc2c(c1)C(c1ccc(Cl)cc1)=N[C@@H](CC(=O)NCCNC(=O)/C=C/c1ccc(B(O)O)cc1)c1nnc(C)n1-2 [BRD-E29, (4-((E)-3-((2-(2-((4S)-6-(4-chlorophenyl)-8-methoxy-1-methyl-4H-benzo[f][1,2,4]triazolo[4,3-a][1,4]diazepin-4-yl)acetamido)ethyl)amino)-3-oxoprop-1-en-1-yl)phenyl)boronic acid]
[2]
  Degradation of BRD4, combination with CRBN ligand 8046: √ (A black check mark indicates efficacy of 30% to 70% or higher protein degradation)
  Degradation of BRD4, combination with CRBN ligand 8066: √ (A black check mark indicates efficacy of 30% to 70% or higher protein degradation)
[2]; Table 1, aryl-boronic acid BRD4 ligand + 8047
  Degradation of BRD4, combination with CRBN ligand 8047: √ (A black check mark indicates efficacy of 30% to 70% or higher protein degradation)
[3]
  loss of cellular viability (toxicity) versus monomers alone: reduced viability; also recorded: increased toxicity
[4]; [5]
  BRD4 degradation: causes degradation of BRD4; also recorded: Degradation is noted
[4]; [6]
  BRD4 degradation: causes degradation of BRD4; also recorded: Degradation is noted
[4]; [7]
  BRD4 degradation: causes degradation of BRD4; also recorded: Degradation is noted

## COc1ccc2c(c1)C(c1ccc(Cl)cc1)=N[C@@H](CC(=O)NCCOCCOCCNC(=O)c1cccc(B(O)O)c1)c1nnc(C)n1-2 [BRD-E46]
[2]
  Degradation of BRD4, combination with CRBN ligand 8046: √ (A black check mark indicates efficacy of 30% to 70% or higher protein degradation)
  Degradation of BRD4, combination with CRBN ligand 8066: √ (A black check mark indicates efficacy of 30% to 70% or higher protein degradation)
[3]
  loss of cellular viability (toxicity) versus monomers alone: reduced viability; also recorded: increased toxicity
[4]; [5]
  BRD4 degradation: causes degradation of BRD4; also recorded: Degradation is noted
[4]; [7]
  BRD4 degradation: causes degradation of BRD4; also recorded: Degradation is noted

## CCNC(=O)C[C@@H]1N=C(c2ccc(Cl)cc2)c2cc(Sc3ccc(B(O)O)cc3)ccc2-n2c(C)nnc21 [BRD-E75, (4-(((4S)-6-(4-chlorophenyl)-4-(2-(ethylamino)-2-oxoethyl)-1-methyl-4H-benzo[f][1,2,4]triazolo[4,3-a][1,4]diazepin-8-yl)thio)phenyl)boronic acid]
[2]; Table 2, aryl-boronic acid BRD4 ligand + 8314
  Degradation of BRD4, combination with MDM2 ligand 8314: √ (A black check mark indicates efficacy of 30% to 70% or higher protein degradation)
[3]
  loss of cellular viability (toxicity) versus monomers alone: reduced viability; also recorded: increased toxicity

## CCNC(=O)C[C@@H]1N=C(c2ccc(Cl)cc2)c2cc(Sc3cccc(B(O)O)c3)ccc2-n2c(C)nnc21 [BRD-E76]
[2]
  Degradation of BRD4, combination with CRBN ligand 8046: √ (A black check mark indicates efficacy of 30% to 70% or higher protein degradation)
[3]
  loss of cellular viability (toxicity) versus monomers alone: reduced viability; also recorded: increased toxicity
[4]; [5]
  BRD4 degradation: causes degradation of BRD4
[4]; [6]
  BRD4 degradation: causes degradation of BRD4

## CCNC(=O)C[C@@H]1N=C(c2ccc(Cl)cc2)c2cc(OCCCCCCCNC(=O)c3ccc(B(O)O)cc3)ccc2-n2c(C)nnc21 [BRD-E78]
[2]
  Degradation of BRD4, combination with VHL ligand 8305: √ (A black check mark indicates efficacy of 30% to 70% or higher protein degradation)
[3]
  loss of cellular viability (toxicity) versus monomers alone: reduced viability; also recorded: increased toxicity

## COc1ccc2c(c1)C(c1ccc(Cl)cc1)=N[C@@H](CC(=O)NCCc1ccc(O)c(O)c1)c1nnc(C)n1-2 [BRD-N10, (S)-2-(6-(4-chlorophenyl)-8-methoxy-1-methyl-4H-benzo[f][1,2,4]triazolo[4,3-a][1,4]diazepin-4-yl)-N-(3,4-dihydroxyphenethyl)acetamide]
[2]; Table 4, aromatic 1,2-diol BRD4 ligand + 8048
  Degradation of BRD4, combination with CRBN ligand 8048: √ (A black check mark indicates efficacy of 30% to 70% or higher protein degradation)
[2]; Table 4, aromatic 1,2-diol BRD4 ligand + 8049
  Degradation of BRD4, combination with CRBN ligand 8049: √ (A black check mark indicates efficacy of 30% to 70% or higher protein degradation)
[2]; Table 5, aromatic 1,2-diol BRD4 ligand + 8310
  Degradation of BRD4, combination with MDM2 ligand 8310: √ (A black check mark indicates efficacy of 30% to 70% or higher protein degradation)
[3]; co-dosed 1:1 with CRBN ligand 8049, MV-4-11, 24 h, 1 nM-100 μM each
  loss of cellular viability (toxicity): concentration-dependent loss in cellular viability; also recorded: increased toxicity
[4]; BRD4 monomer alone, HeLa, 1-10 μM
  BRD4 degradation: there is no degradation of BRD4
[4]; co-treated 1:1 with CRBN ligand 8048, HeLa, 1-10 μM each
  BRD4 degradation: causes degradation of BRD4; also recorded: capable of degrading BRD4
